Residues, ends and D or L forms follow the SMILES beside them. No end group written: not given here. *: point of attachment. 5FAM = O=C1OC2(c3ccc(O)cc3Oc3cc(O)ccc32)c2ccc(C(=O)*)cc21

Data set [1] has as its target T1, His-tagged recombinant AGO2 (Homo sapiens, UniProt Q9UKV8). In words: Surface plasmon resonance (Biacore T200) binding of peptides to AGO2. Particulars: for kon: read-out: ka (association rate constant); for koff: read-out: kd (dissociation rate constant). How it is done:
Surface Plasmon Resonance (SPR) was utilized using Biacore T200 (GE Healthcare) to study binding affinities between decoy peptides Pep#11 and Pep#26 peptides with recombinant His-tagged AGO2 protein. The recombinant His-AGO2 and MSI1 peptides were diluted in HBS-P buffer (10 mM HEPES, 150 mM NaCl and 0.005% T20, pH 7.4). To evaluate the binding affinity, recombinant His-AGO2 was immobilized on a CM5 sensor chip (GE Healthcare, BR100012) via amine coupling (~7000 RU) for 3600 s at a rate of 5 µL/mins, and flow rate for binding analysis was run at 30 µL/mins. After injection of each peptide, the surface was regenerated with an injection of 10 mM NaOH. All sensorgrams were double referenced by subtracting the surface effect from the control flow […] and the buffer effect form the blank buffer. The kinetic values ka, kd, and KD were obtained using Biacore T200 Evaluation Software (GE healthcare) assuming the Langmuir 1:1 binding model.

In data set [2] the test system is CCND1, CDK4, HELLS, NF2, TP53, p21 mRNA. Put plainly: qRT-PCR of downstream mRNA targets of the MSI1-AGO2 complex under hypoxia. Conditions: peptide transfection in DBTRG-05MG cells, hypoxia versus normoxia. In kind it is cell-based, human. Here is the method:
In vitro binding assay was carried out with N-terminal biotinylated synthetic peptides (Table S3) based on our peptide array screening. The synthesized peptides (Thermo Fisher Scientific Inc., Waltham, MA, USA) were dissolved in 10% DMSO by 1 mg/mL and subjected to incubation with an equal amount of AGO2 recombinant protein (2 μg each) in T20 blocking solution (Thermo Fisher Scientific Inc., Waltham, MA, USA). After 16 h incubation, the peptides were pulled down with immobilized streptavidin (Pierce 21115, Thermo Fisher Scientific Inc., Waltham, MA, USA). The precipitated peptide/protein complex was subjected to immunoblotting with 6×His primary antibody (GeneTex Inc., Hsinchu, Taiwan) hybridization and detection. Peptide transfection was carried out with Proteojuice (Millipore 71281, Merck Co., Darmstadt, Germany) following the manufacturer’s instruction. For the in vivo compatible cell-penetrating peptide (CPP)-modified peptides, we tested two different CPPs at the C-terminal ends, including TAT (48–60) from HIV [55, 56, 57].
(§1) Other general procedures not detailed above including plasmid constructions, transfection, co-immunoprecipitation, RNA extraction, quantitative real-time PCR (qRT-PCR), gene expression analysis, Western blotting, immunofluorescence (IF) staining, and immunohistochemistry staining (IHC) were described previously.

The target in data set [3] is T2, MSI1/AGO2 interaction (Homo sapiens, UniProt Q9UKV8).
T2 construct: endogenous in cells
T2 sequence (Q9UKV8 whole entry): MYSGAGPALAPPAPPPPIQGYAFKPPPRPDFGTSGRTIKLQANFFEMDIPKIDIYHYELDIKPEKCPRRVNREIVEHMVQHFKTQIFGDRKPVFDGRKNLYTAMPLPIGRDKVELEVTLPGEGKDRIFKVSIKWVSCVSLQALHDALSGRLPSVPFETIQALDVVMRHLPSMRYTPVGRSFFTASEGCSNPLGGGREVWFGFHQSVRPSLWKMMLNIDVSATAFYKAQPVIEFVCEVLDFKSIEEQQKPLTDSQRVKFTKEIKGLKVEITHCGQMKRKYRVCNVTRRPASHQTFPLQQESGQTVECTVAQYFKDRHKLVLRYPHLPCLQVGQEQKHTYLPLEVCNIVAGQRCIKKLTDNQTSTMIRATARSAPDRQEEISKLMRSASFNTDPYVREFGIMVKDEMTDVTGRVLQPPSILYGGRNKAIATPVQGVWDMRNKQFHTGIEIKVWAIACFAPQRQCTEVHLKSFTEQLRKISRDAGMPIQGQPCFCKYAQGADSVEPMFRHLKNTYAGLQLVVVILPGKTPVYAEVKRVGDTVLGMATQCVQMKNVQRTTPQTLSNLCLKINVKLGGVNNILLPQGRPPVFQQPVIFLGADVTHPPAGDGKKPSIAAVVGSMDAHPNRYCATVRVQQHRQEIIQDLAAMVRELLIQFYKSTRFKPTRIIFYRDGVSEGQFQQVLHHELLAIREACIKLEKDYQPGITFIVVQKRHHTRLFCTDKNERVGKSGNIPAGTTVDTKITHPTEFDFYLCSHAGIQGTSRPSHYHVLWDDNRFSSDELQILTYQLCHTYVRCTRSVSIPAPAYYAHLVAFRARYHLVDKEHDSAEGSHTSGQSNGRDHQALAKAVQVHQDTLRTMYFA
In words: Co-immunoprecipitation competition of MSI1/AGO2 complex in cells. It is filed as cell-based. Conditions: cells treated with 10 µM peptide, hypoxic condition.
Excerpt: as §1

Data set [4] deals with T3, MSI1/AGO2 interaction (M-NGluc / A-CGluc) (Homo sapiens, UniProt Q9UKV8).
T3 construct: expressed in transfected cells; pcDNA 3.1 and pCMV backbones
T3 sequence (Q9UKV8 whole entry): as above
Put plainly: Split Gaussia luciferase reconstitution assay of MSI1/AGO2 interaction. In kind it is cell-based. Conditions: IVIS; for reconstituted luciferase luminescence versus non-treated or CP-treated cells: tat-conjugated peptides, cisplatin-induced stress (30 µM). The source says: We applied a gaussia luciferase (Gluc) system to detect protein–protein interaction between MSI1 and AOG2. We split gaussia luciferase into two fragments: the 106 a.a. N-terminus (NGluc) and the 79 a.a. C-terminus (CGluc). After polymerase chain reaction (PCR) amplification, the NGluc and CGluc were subjected to construct fusion protein with MSI1 and AGO2, respectively, in the pcDNA 3.1 and pCMV backbone. Each fusion protein contains a flexible linker (GGGGS) 2 between the protein and polypeptides of split luciferase. We stably transfected both fusion protein expression plasmids in DBTRG-05MG GBM cell line and generated a stable cell line with Hygromycin B (Sigma Aldrich Co., St. Louis, MI, USA) and G418 sulfate (Merck Co., […], Germany). We established a normalizing standard by transducing multiple reporter genes into the generated stable cell line for stably expressing green fluorescent protein (GFP), firefly luciferase (FLuc), and herpes simplex virus type I thymidine kinase (HSV1-tk) using lentivirus as previously described. For in vitro MSI1/AGO2 interaction study in cells, cell lysates were prepared with mild reporter lysis buffer (Promega Co., Madison, WI, USA) with a frozen–thaw cycle. The supernatant was then collected after centrifugation and dispensed in a 96-well black flat bottom plate. Coelenterazine (Nanolight Technologies, Ltd., Pinetop, AZ, USA), the substrate of GLuc, was firstly dissolved in methanol and diluted in reporter assay buffer (15 mM potassium phosphate, 25 mM glycylglycine, 15 mM MgSO4, 4 mM EDTA). D-luciferin sodium salt (Promega Co., Madison, WI, USA) was dissolved in sterilized water and diluted in reporter assay buffer supplemented with 2mM ATP. The bioluminescent signals were acquired by Wallac 1420 Victor2 Microplate Reader (Perkin Elmer, Waltham, MA, USA) equipped with auto-dispenser to avoid rapid decay of Gluc.

Data set [5] concerns DBTRG-05MG cell line. In words: Concentration-dependent cellular uptake (half-uptake concentration EC50). Conditions: Figure 6A,B legend, fluorescein labeled peptides, ELISA reader. In kind it is in vitro ADME, human.
The target of data set [6] is T1, His-tagged recombinant AGO2. In words: PepSpot peptide tiling array incubated with His-tagged AGO2. In kind it is binding. Conditions: 15-mer peptides on nitrocellulose, 2 μg His-AGO2 overnight, HRP anti-6×His. How it is done: To rapidly screen the putative binding hotspots along the C-terminus of MSI1, we mimicked the epitope screening method by dotting the synthetic short peptides on nitrocellulose membrane and incubated with purified AGO2 protein [49]. The C-terminus of MSI1 (200–362) was divided into 27 individual synthetic peptides with N-terminal amine attached on the nitrocellulose. Each peptide is 15 amino acids in length and has eight amino acids overlapping with the previous neighboring peptide (Table S1). The purchased PepSpot membrane (JPT peptide technologies, Berlin, Germany) was firstly rinsed in methanol for 5 min, followed by Tris buffer saline supplemented with 0.1% Tween-20 (TBS-T) washing thrice. The membrane was then blocked by Superblock T20 blocking buffer (Thermo Fisher Scientific Inc., Waltham, MA, USA) for 2 h and 2 μg His-tagged AGO2 recombinant protein was added for an overnight incubation. The membrane was washed thrice with TBS-T and incubated with horseradish peroxidase (HRP)-conjugated 6×His tag primary antibody (Genetex Inc., Hsinchu, Taiwan) for 4 h under 4 °C. Enhanced chemiluminescent reagent was used for further blotting.

The subject of data set [7] is DBTRG-05MG cells. Put plainly: Degradation of 5′FAM-labeled peptides in cells. Conditions: 5′FAM-labeled peptide, cells followed up to 6 h, fluorescence by ELISA reader, three independent experiments. In kind it is in vitro ADME, human.
Data set [8] relates to DBTRG-05MG cells. In words: Time-lapse cellular uptake of 5′FAM-labeled peptides. In kind it is in vitro ADME, human. Conditions: 5′FAM-labeled peptide, time-lapse confocal and fluorescence by ELISA reader, n = 3 per time point.
The target of data set [9] is T4, endogenous AGO2 (Homo sapiens, UniProt Q9UKV8).
T4 construct: endogenous in cells
T4 sequence (Q9UKV8 whole entry): as above
Put plainly: Confocal immunofluorescence of 5′FAM-tagged peptides: cell entry and co-localization with AGO2. Conditions: 10 µM 5′FAM-tagged peptide. It is filed as cell-based.
Excerpt: as §1

T1 sequence (Q9UKV8 whole entry): as above

Turning to “GSHPWTMAPPPGSTPGRKKRRQRRRPPQ [CP, reference compound]”, in data set [1], the kon worked out at 42500 M⁻¹ s⁻¹ and the koff is 4.53 s⁻¹.

With YQFPEFRVERTPLPSGRKKRRQRRRPPQ [Pep#11], the “effect of hypoxia-induced MSI1/AGO2 complex on downstream mRNAs (CCND1, CDK4, HELLS, NF2, TP53, p21)” value in [2] is on record as “reversed”. Further, the “interference with MSI1/AGO2 binding complex formation (Co-IP immunoblot)” value in [3] was “completely abolished”. In [4], the “reconstituted luciferase luminescence versus non-treated or CP-treated cells” value is reported as “significantly lower”. In data set [1], the kon came to 32600 M⁻¹ s⁻¹ and the koff was found to be 0.0168 s⁻¹. The concentration for a half-maximal effect (EC50) in [5] was 9.1 µM. Moreover, in data set [6], the “binding to AGO2 on the peptide array (immunoblot)” value is “strongest binding peptides”. In [7], the “time of significant degradation in the cells (change in 5′FAM fluorescence)” value is “within the first half an hour”. The “time of significant increases in cellular uptake” value in data set [8] is “within the first hour”.

HSLGGPLIATAFTNGGRKKRRQRRRPPQ [Pep#26]: the “effect of hypoxia-induced MSI1/AGO2 complex on downstream mRNAs (CCND1, CDK4, HELLS, NF2, TP53, p21)” value in data set [2] was “reversed”. Further, the “interference with MSI1/AGO2 binding complex formation (Co-IP immunoblot)” value in [3] is listed as “completely abolished”. In addition, the “reconstituted luciferase luminescence versus non-treated or CP-treated cells” value in data set [4] is “significantly lower”. In data set [1], the kon was found to be 3160 M⁻¹ s⁻¹ and the koff stood at 0.00213 s⁻¹. Also, the 50% effective concentration (EC50) in data set [5] was 9 µM. For the same molecule, in data set [6], the “binding to AGO2 on the peptide array (immunoblot)” value was “strongest binding peptides”. Also, the “time of significant degradation in the cells (change in 5′FAM fluorescence)” value in data set [7] was “within the first half an hour”.

Take `CC[C@H](C)[C@H](NC(=O)[C@H](CC(C)C)NC(=O)[C@@H]1CCCN1C(=O)CNC(=O)CNC(=O)[C@H](CC(C)C)NC(=O)[C@H](CO)NC(=O)[C@H](Cc1c[nH]cn1)NC(=O)c1ccc2c(c1)C(=O)OC21c2ccc(O)cc2Oc2cc(O)ccc21)C(=O)N[C@@H](C)C(=O)N[C@H](C(=O)N[C@@H](C)C(=O)N[C@@H](Cc1ccccc1)C(=O)N[C@H](C(=O)N[C@@H](CC(N)=O)C(=O)NCC(=O)NCC(=O)N[C@@H](CCCNC(=N)N)C(=O)N[C@@H](CCCCN)C(=O)N[C@@H](CCCCN)C(=O)N[C@@H](CCCNC(=N)N)C(=O)N[C@@H](CCCNC(=N)N)C(=O)N[C@@H](CCC(N)=O)C(=O)N[C@@H](CCCNC(=N)N)C(=O)N[C@@H](CCCNC(=N)N)C(=O)N[C@@H](CCCNC(=N)N)C(=O)N1CCC[C@H]1C(=O)N1CCC[C@H]1C(=O)N[C@@H](CCC(N)=O)C(=O)O)[C@@H](C)O)[C@@H](C)O` [5′FAM-Pep#26] (5FAM-HSLGGPLIATAFTNGGRKKRRQRRRPPQ-OH): in data set [9], the “entry into cells (confocal microscopy)” value is given as “capable of entering the cells”.

With `CC(C)C[C@H](NC(=O)[C@@H]1CCCN1C(=O)[C@@H](NC(=O)[C@H](CCCNC(=N)N)NC(=O)[C@H](CCC(=O)O)NC(=O)[C@@H](NC(=O)[C@H](CCCNC(=N)N)NC(=O)[C@H](Cc1ccccc1)NC(=O)[C@H](CCC(=O)O)NC(=O)[C@@H]1CCCN1C(=O)[C@H](Cc1ccccc1)NC(=O)[C@H](CCC(N)=O)NC(=O)[C@H](Cc1ccc(O)cc1)NC(=O)c1ccc2c(c1)C(=O)OC21c2ccc(O)cc2Oc2cc(O)ccc21)C(C)C)[C@@H](C)O)C(=O)N1CCC[C@H]1C(=O)N[C@@H](CO)C(=O)NCC(=O)N[C@@H](CCCNC(=N)N)C(=O)N[C@@H](CCCCN)C(=O)N[C@@H](CCCCN)C(=O)N[C@@H](CCCNC(=N)N)C(=O)N[C@@H](CCCNC(=N)N)C(=O)N[C@@H](CCC(N)=O)C(=O)N[C@@H](CCCNC(=N)N)C(=O)N[C@@H](CCCNC(=N)N)C(=O)N[C@@H](CCCNC(=N)N)C(=O)N1CCC[C@H]1C(=O)N1CCC[C@H]1C(=O)N[C@@H](CCC(N)=O)C(=O)O` [5′FAM-Pep#11] (5FAM-YQFPEFRVERTPLPSGRKKRRQRRRPPQ-OH), the “entry into cells (confocal microscopy)” value in [9] is “capable of entering the cells”. For the same molecule, the “subcellular co-localization with AGO2” value in [9] (confocal microscopy) was “co-localized with endogenous AGO2 in the cytosol”.

In the case of `N.N.[Cl][Pt][Cl]` [cisplatin, reference compound], in data set [4] (cells overexpressing M-NGluc and A-CGluc, 30 µM cisplatin), the “luciferase luminescence versus PBS-treated group” value is recorded as “significantly greater luminescence”.

The values above are taken from publication PMC8833744, “Strategic Decoy Peptides Interfere with MSI1/AGO2 Interaction to Elicit Tumor Suppression Effects” (Cancers, 2022).
